# Source: patent US20210261621A1, “Preparation of Dilipid Polymixins and Use Thereof as Antimicrobial Adjuvants” (priority 2018, published 2021)
# Where two headings read alike, the source gives them in different places. Positions of bridges follow the written chain, without caps; N, C: chain ends. Non-standard residues stand in square brackets, D forms with d. Residues, ends and D or L forms follow the SMILES beside them. *: point of attachment. Benzoyl(4-Ph) = O=C(c1ccc(-c2ccccc2)cc1)*; Dab = NCC[C@H](N)C(=O)O
# Key:
# [1] = system: A. baumannii ATCC 17978; type: cell-based, Acinetobacter baumannii; conditions: A. baumannii ATCC 17978
# Text: (§1) Bacterial strains were either obtained from the American Type Culture Collection (ATCC), Canadian National Intensive Care Unit (CAN-ICU) surveillance study or the Canadian Ward Surveillance (CANWARD) study. Strains from both CAN-ICU and CANWARD are isolates recovered from patients diagnosed with a presumed infectious disease that were admitted in a participating medical center across Canada. Efflux-deficient strain PAO200 (lacking MexAB-OprM efflux system) and PA0750 (lacking MexAB-OprM, MexCD-OprJ, MexEF-OprN, MexJK and MexXY efflux systems, and the outer membrane protein OpmH) were kindly gifted by Dr. Ayush Kumar (University of Manitoba).
# (§2) The in vitro antibacterial activity of the compounds studied were assessed by broth microdilution susceptibility testing following CLSI guidelines. Bacterial cultures were grown overnight prior to the assay. The overnight grown cultures were diluted in saline to 0.5 McFarland turbidity, followed by 1:50 dilution in Mueller-Hinton broth (MHB) for inoculation to a final concentration of approximately 5×10^5 colony forming units/mL. Testing was performed on 96-well plates where the tested compounds were 2-fold serially diluted in MHB and incubated with equal volumes of bacterial inoculum at 37° C. for 18 h. […] Wells containing MHB with or without bacterial cells were used as positive or negative control, respectively.
# [2] = system: A. baumannii 110193; type: cell-based, Acinetobacter baumannii; conditions: A. baumannii 110193
# Text: as §1, §2
# [3] = system: A. baumannii LAC-4; type: cell-based, Acinetobacter baumannii; conditions: A. baumannii LAC-4
# Text: as §1, §2
# [4] = system: A. baumannii CAN-ICU 63169; type: cell-based, Acinetobacter baumannii; conditions: A. baumannii CAN-ICU 63169
# Text: as §1, §2
# [5] = system: A. baumannii AB031; type: cell-based, Acinetobacter baumannii; conditions: A. baumannii AB031
# Text: as §1, §2
# [6] = system: A. baumannii 92247; type: cell-based, Acinetobacter baumannii
# Experimental: (§3) We then addressed the possibility for the dilipid polymyxins to display enhanced antibacterial activity against colistin-resistant Gram-negative pathogens. […] The extended hydrophobic region of the dilipid polymyxin may provide additional hydrophobic interactions to the outer membrane of colistin-resistant organisms. Eight MDR colistin-resistant Gram-negative bacterial isolates were tested, including two E. coli isolates harboring the mcr-1 plasmid-encoded polymyxin resistance gene. We found no difference between the antibacterial activity of dilipid polymyxins and colistin against colistin-resistant Gram-negative bacteria (Table 3).
# as §1, §2
# [7] = system: K. pneumoniae 113254; type: cell-based, Klebsiella pneumoniae
# Experimental: as §3, §1, §2
# [8] = system: K. pneumoniae 113250; type: cell-based, Klebsiella pneumoniae
# Experimental: as §3, §1, §2
# [9] = system: MSSE CANWARD-2008 81388; type: cell-based, Staphylococcus epidermidis; conditions: for MIC: MSSE CANWARD-2008 81388 (methicillin-susceptible Staphylococcus epidermidis)
# Text: as §1, §2
# [10] = system: MRSA ATCC 33592; type: cell-based, Staphylococcus aureus; conditions: for MIC: MRSA ATCC 33592 (methicillin-resistant Staphylococcus aureus)
# Text: as §1, §2
# [11] = system: S. aureus ATCC 29213; type: cell-based, Staphylococcus aureus; conditions: S. aureus ATCC 29213
# Text: as §1, §2
# [12] = system: P. aeruginosa 101243; type: cell-based, Pseudomonas aeruginosa
# Experimental: as §3, §1, §2
# [13] = system: P. aeruginosa 91433; type: cell-based, Pseudomonas aeruginosa
# Experimental: as §3, §1, §2
# [14] = system: P. aeruginosa 114228; type: cell-based, Pseudomonas aeruginosa
# Experimental: as §3, §1, §2
# [15] = system: E. coli CAN-ICU 63074; type: cell-based, Escherichia coli; conditions: E. coli CAN-ICU 63074
# Text: as §1, §2
# [16] = system: E. coli 107115; type: cell-based, Escherichia coli; conditions: E. coli 107115
# Text: as §1, §2
# [17] = system: E. coli CAN-ICU 61714; type: cell-based, Escherichia coli; conditions: E. coli CAN-ICU 61714
# Text: as §1, §2
# [18] = system: E. coli ATCC 25922; type: cell-based, Escherichia coli; conditions: E. coli ATCC 25922
# Text: as §1, §2
# [19] = system: K. pneumoniae ATCC 13883; type: cell-based, Klebsiella pneumoniae; conditions: K. pneumoniae ATCC 13883
# Text: as §1, §2
# [20] = system: K. pneumoniae 116381; type: cell-based, Klebsiella pneumoniae; conditions: K. pneumoniae 116381
# Text: as §1, §2
# [21] = system: P. aeruginosa PAO200; conditions: for MIC: P. aeruginosa PAO200, efflux-deficient strain that lacks the MexAB-OprM pump
# Text: (§4) To our curiosity, we explored whether efflux can affect the activity of polymyxins. It is widely accepted that polymyxins disrupt Gram-negative bacterial membranes that result to intracellular component leakage and bacterial cell death. However, for this to occur requires the agent to reach the periplasmic space to interact and disrupt the inner membrane. Active efflux may potentially expel polymyxins out of the periplasm, effectively reducing its periplasmic and intracellular concentrations. To study the effect of efflux on polymyxins in Gram-negative pathogens, we used P. aeruginosa as they inherently overexpress efflux systems such as MexAB-OprM, MexCD-OprJ and MexXY-OprM. Moreover, antibiotic substrates for these efflux systems are mostly characterized. We evaluated and compared the activity of the dilipid polymyxins, colistin and PMBN against wild-type PAO1 and two efflux-deficient P. aeruginosa isogenic mutants (Table 5). The strain PAO200 lacks the MexAB-OprM efflux system while strain PAO750 lacks five clinically-relevant pumps (MexAB-OprM, MexCD-OprJ, MexEF-OprN, MexJK and MexXY) and outer membrane protein OpmH.
# as §1, §2
# [22] = system: P. aeruginosa PAO750; conditions: P. aeruginosa PAO750, efflux-deficient strain that lacks five pumps and OpmH
# Text: as §4, §1, §2
# [23] = system: E. coli 94393; type: cell-based, Escherichia coli
# Experimental: as §3, §1, §2
# [24] = system: E. coli 94474; type: cell-based, Escherichia coli
# Experimental: as §3, §1, §2
Compound,MIC [1] [µg/mL],MIC [2] [µg/mL],MIC [3] [µg/mL],MIC [4] [µg/mL],MIC [5] [µg/mL],MIC [9] [µg/mL],MIC [10] [µg/mL],MIC [11] [µg/mL],MIC [15] [µg/mL],MIC [16] [µg/mL],MIC [17] [µg/mL],MIC [18] [µg/mL],MIC [19] [µg/mL],MIC [20] [µg/mL],MIC [21] [µg/mL],MIC [22] [µg/mL],further results
"CC(C)C[C@@H]1NC(=O)[C@@H](Cc2ccccc2)NC(=O)[C@H](CCN)NC(=O)[C@@H](NC(=O)[C@H](CCN)NC(=O)[C@@H](NC(=O)[C@H](CCNC(=O)c2ccc(-c3ccccc3)cc2)NC(=O)c2ccc(-c3ccccc3)cc2)[C@@H](C)O)CCNC(=O)[C@H]([C@@H](C)O)NC(=O)[C@H](CCN)NC(=O)[C@H](CCN)NC1=O [Compound 5, Dibiphenyl-4-Carboxylic Acid (Di-Biphenyl) Polymyxin] ({Benzoyl(4-Ph)}-[Dab](Benzoyl(4-Ph))T[Dab][Dab][Dab][dF]L[Dab][Dab]T; lactam 4-C)",16,16,16,64,8,8,16,8,32,4,32,8,>128,>128,4,4,MIC [6]; 92247: 8 µg/mL; MIC [7]; 113254: >64 µg/mL; MIC [8]; 113250: >64 µg/mL; fold better MIC than colistin ([9]; methicillin-susceptible Staphylococcus epidermidis): 32 fold; fold better MIC than colistin ([10]; methicillin-resistant Staphylococcus aureus): 32 fold; MIC [12]; 101243: >128 µg/mL; MIC [13]; 91433: 8 µg/mL; MIC [14]; 114228: 16 µg/mL; MIC [23]; 94393: 16 µg/mL; MIC [24]; 94474: 8 µg/mL
colistin [reference compound],0.25,0.25,0.125,32,0.25,256,512,256,≤0.5,0.5,0.5,0.5,≤0.25,1,0.5,0.5,"MIC ([6]; A. baumannii 92247, colistin-resistant multidrug-resistant isolate): 4 µg/mL; MIC ([7]; K. pneumoniae 113254, colistin-resistant multidrug-resistant isolate): 256 µg/mL; MIC ([8]; K. pneumoniae 113250, colistin-resistant multidrug-resistant isolate): 256 µg/mL; MIC ([12]; P. aeruginosa 101243, colistin-resistant multidrug-resistant isolate): 1024 µg/mL; MIC ([13]; P. aeruginosa 91433, colistin-resistant multidrug-resistant isolate): 4 µg/mL; MIC ([14]; P. aeruginosa 114228, colistin-resistant multidrug-resistant isolate): 4 µg/mL; difference in MIC among the three P. aeruginosa strains tested ([21]; PAO1, PAO200, PAO750): no difference; MIC ([23]; E. coli 94393, colistin-resistant multidrug-resistant isolate): 4 µg/mL; MIC ([24]; E. coli 94474, colistin-resistant multidrug-resistant isolate): 16 µg/mL"
